Patent US11299493B2, “Heterocyclic compounds and uses thereof” (NUVATION BIO INC., priority 2017, dated 2022)

Experiments:
A427 cells [1] = assay: Cell proliferation assay (Cell Titer-Glo) in A427 cells; format: cell-based; conditions: Homo sapiens, A-427, typically 72 h
Procedure: (§1) The effects of test compounds were studied in five cell lines with various histotypes. The cancer cells (Table 4) were harvested during the logarithmic growth period and counted. Adjust cell concentrations to the appropriated number with respective medium, and add 90 μL cell suspensions to 96-well plates. After cells were seeded, the plates were shaken gently to distribute cells evenly and incubated at 37° C., 5% CO2 on day 1.
(§2) Cell viability data were plotted using GraphPad Prism (version 5, GraphPad Software, Inc., San Diego, Calif.). In addition, a nonlinear regression model with a sigmoidal dose response and variable slope within GraphPad Prism was used to calculate the IC50 value of individual test compounds.

NCI-H460 cells = assay: Cell proliferation assay (Cell Titer-Glo) in NCI-H460 cells; format: cell-based; conditions: Homo sapiens, typically 72 h
Procedure: as §1
(§3) Cells were treated with test compounds at 9 concentrations within a desired concentration range (e.g. 1.5 nM-10 μM) on day 2 by series diluting the test compound stock solution (10 mM in DMSO) with culture medium. Cell viability was assessed by Cell Titer-Glo® as recommended by Promega (Cat. No.: G7572, Promega) typically 72 h post-treatment.
as §2

A549 cells = assay: Cytotoxicity assay (resazurin) in A549 cells; format: cell-based; conditions: Homo sapiens, A549, 96 hr, read-out: Cell Viability IC50 A549
Procedure: (§4) Cells were allowed to grow at 37° C. for 24 hr in 5% CO2 environment (culture conditions) in a Nuaire incubator (humidified). Serially diluted test compounds (100 μL) within the desired testing concentration ranges were added to the culture plate were further incubated in culture conditions for 72 hr and 96 hr for A427 and A549 respectively. The experiment was terminated at the designated incubation time by replacing the medium with 100 μL of 1 mM of resazurin (R7017; Sigma) prepared in respective culture medium, and the plates were further incubated in culture conditions for 4-6 hr. Fluorescence was recorded using a multimodal plate reader (Biotek Synergy Neo) at an excitation wavelength of 535 nm and emission wavelength of 590 nm to obtain relative fluorescence units. Data analysis was done by subtracting the background fluorescence (only medium blank) value from each reading and then normalizing with the vehicle control (DMSO treated cells) to obtain percent survival/proliferation. Percent survival was then subtracted by 100 to get the percent inhibition of proliferation which was used to calculate IC50 values.

LoVo cells = assay: Cell proliferation assay (Cell Titer-Glo) in LoVo cells; format: cell-based; conditions: Homo sapiens, typically 72 h
Procedure: as §1, §3, §2

A427 cells [2] = assay: Cytotoxicity assay (resazurin) in A427 cells; format: cell-based; conditions: Homo sapiens, read-out: Cell Viability IC50 A427
Procedure: as §4

WEE1 kinase enzyme = WEE1 kinase enzyme (Homo sapiens (Human), UniProt P30291); assay: WEE1 IC50 determination, LanthaScreen Terbium Labeled TR-FRET kinase assay; format: biochemical; conditions: WEE1 enzyme 1 nM, ATP 10 μM, 1 h
Sequence of WEE1 kinase enzyme (P30291 whole entry): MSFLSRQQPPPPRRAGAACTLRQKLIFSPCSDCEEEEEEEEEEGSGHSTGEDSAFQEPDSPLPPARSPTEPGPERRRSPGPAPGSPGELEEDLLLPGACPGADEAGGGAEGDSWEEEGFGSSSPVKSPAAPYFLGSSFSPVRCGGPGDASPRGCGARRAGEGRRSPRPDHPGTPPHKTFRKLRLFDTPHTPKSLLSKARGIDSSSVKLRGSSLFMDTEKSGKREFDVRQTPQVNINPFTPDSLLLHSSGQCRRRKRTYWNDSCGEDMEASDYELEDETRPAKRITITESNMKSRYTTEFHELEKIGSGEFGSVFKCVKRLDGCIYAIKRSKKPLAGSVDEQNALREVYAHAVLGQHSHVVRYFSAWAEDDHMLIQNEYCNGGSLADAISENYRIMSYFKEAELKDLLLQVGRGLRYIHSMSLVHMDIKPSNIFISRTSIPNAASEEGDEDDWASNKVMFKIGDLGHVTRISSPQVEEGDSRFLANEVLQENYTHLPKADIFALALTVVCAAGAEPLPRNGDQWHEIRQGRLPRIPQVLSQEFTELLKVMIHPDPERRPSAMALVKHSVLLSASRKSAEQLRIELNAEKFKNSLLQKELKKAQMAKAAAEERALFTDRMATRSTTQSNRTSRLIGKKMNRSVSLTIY
Procedure: IC50 values of compounds against WEE1 kinase enzyme were determined by LanthaScreen™ Terbium Labeled TR-FRET assay. […] After 1 h, […] stop solution containing Terbium labeled antibody (4 nM) (#PV3529, Invitrogen, Life Technologies Grand Island, N.Y.) and EDTA (#E5134, Sigma, St-Louis, Mo.) (20 mM) in TR-FRET dilution buffer (#PV3574, Invitrogen, Life Technologies Grand Island, N.Y.) was added. Readings were taken in a Synergy Neo Plate reader (BioTek, Winooski) at single excitation of 340 nm and Dual emission at 495 nm and 520 nm respectively.
The % activity of test samples was calculated as (Sample−Min)*100/(Max−Min). [Max: DMSO control, complete reaction with enzyme & DMSO and Min: No enzyme & DMSO].

HCT-116 cells = assay: Cell proliferation assay (Cell Titer-Glo) in HCT-116 cells; format: cell-based; conditions: Homo sapiens; HCT-116, Cell Titer-Glo, typically 72 h; read-out: IC50 HCT116
Procedure: as §1, §3, §2

A427 cells [3] = assay: Activity of compounds in combination with cisplatin in A427 cells (resazurin); format: cell-based; conditions: Homo sapiens, A-427, 24 hr 2.5 μM cisplatin
Procedure: The activity of test compounds in combination with cisplatin in A427 cells was determined. Cells were seeded in a 96 well plate at 2000 cells/well. The next day, cells were treated with 2.5 μM cisplatin or vehicle (1×PBS) and incubated in culture conditions (37° C., 5% CO2) for 24 hr. Following the incubation, culture medium was replaced with medium containing test compound and cisplatin/vehicle, and cells were further incubated in culture conditions for another 72 hr. By this procedure, cisplatin was either continued or discontinued after an initial 24-hr incubation. Addition of test compound was in concentrations needed to obtain an 8-point dose response curve, with concentrations prepared by 3-fold dilution. The assay was terminated upon addition of resazurin, incubation for 4 hr in culture conditions and measurement of fluorescence at excitation and emission wavelengths of 535 and 590 nm, respectively.

As-Pc-1 cells = assay: Cytotoxicity assay (resazurin) in As-Pc-1 cells; format: cell-based; conditions: Homo sapiens, ASPC1; As-Pc-1, resazurin; read-out: Cell Viability IC50 As-Pc-1
Procedure: [The source words this procedure for another cell line and reports this cell line under the same test.] as §4, with “A549 (CCL-185; ATCC) and A427 (HTB-53; ATCC), both lung epithelial cell lines were seeded in their respective medium (DMEM/MEM, 10569044/41090101; Gibco) at a cell count of 1500 cells per 100 μL per well in a 96 well edge plate (167425; ThermoFisher). Cells” for “Cells”, “values. Potency of compounds in other cell lines (As-Pc-1, Panc 10.05, A172) was determined in an analogous manner.” for “values.”

A172 cells = assay: Cytotoxicity assay (resazurin) in A172 cells; format: cell-based; conditions: Homo sapiens, A 172, read-out: Cell Viability IC50 A172
Procedure: [The source words this procedure for another cell line and reports this cell line under the same test.] as §4, with “A549 (CCL-185; ATCC) and A427 (HTB-53; ATCC), both lung epithelial cell lines were seeded in their respective medium (DMEM/MEM, 10569044/41090101; Gibco) at a cell count of 1500 cells per 100 μL per well in a 96 well edge plate (167425; ThermoFisher). Cells” for “Cells”, “values. Potency of compounds in other cell lines (As-Pc-1, Panc 10.05, A172) was determined in an analogous manner.” for “values.”

Panc 10.05 cells [4] = assay: Cytotoxicity assay (resazurin) in Panc 10.05 cells; format: cell-based; conditions: Homo sapiens, Panc1005; Panc 10.05, resazurin; read-out: Cell Viability IC50 Panc 10.05
Procedure: [The source words this procedure for another cell line and reports this cell line under the same test.] as §4, with “A549 (CCL-185; ATCC) and A427 (HTB-53; ATCC), both lung epithelial cell lines were seeded in their respective medium (DMEM/MEM, 10569044/41090101; Gibco) at a cell count of 1500 cells per 100 μL per well in a 96 well edge plate (167425; ThermoFisher). Cells” for “Cells”, “values. Potency of compounds in other cell lines (As-Pc-1, Panc 10.05, A172) was determined in an analogous manner.” for “values.”

A2780 cells = assay: Cell proliferation assay (Cell Titer-Glo) in A2780 cells; format: cell-based; conditions: Homo sapiens, typically 72 h
Procedure: as §1, §3, §2

AsPC-1 cells = assay: Synergistic activity with gemcitabine, combination matrix method, AsPC-1 cells; format: cell-based; conditions: fractional effect level of about 0.5, Chou-Talalay
Procedure: (§5) Determination of synergistic activity of compounds in combination with a chemotherapeutic drug on cell viability is determined by a combination matrix method. Chemotherapeutics that may be used in the combination include but are not limited to a platinum-based chemotherapeutic agent, a DNA alkylating agent, a topoisomerase inhibitor, an anthracycline, a histone deacetylase inhibitor, a bromodomain inhibitor, a kinase inhibitor, a mTOR inhibitor, a PARP inhibitor, an ATM inhibitor, an ATR inhibitor, a Wee1 inhibitor, a proteasome inhibitor, and a nucleotide analog or precursor analog. Cancer cell lines that may be used in the assay include but are not limited to lung cancer, leukemia, lymphoma, multiple myeloma, ovarian cancer, breast cancer, pancreatic cancer, stomach cancer, colon cancer, liver cancer, head and neck cancer, kidney cancer, skin cancer and brain cancer cell lines. Cells are seeded in a 96-well plate and incubated at 37° C. in cell culture conditions for 24 hr. […] Measurement of fluorescence at an excitation and emission wavelength of 535 and 590 nm respectively. Synergy is evaluated with the combination index (CI) value using the Chou-Talalay method in which additive effect (CI=1), synergism (CI<1), and antagonism (CI>1) in drug combinations is determined (Chou T C. Cancer Res 2010; 70:440-6.). […]

Panc 10.05 cells [5] = assay: Synergistic activity with gemcitabine, combination matrix method, Panc 10.05 cells; format: cell-based; conditions: fractional effect level of about 0.5, Chou-Talalay
Procedure: as §5

[6] = then compound + cisplatin 72 hr, read-out: Cell viability IC50 in A427 cells with 2.5 μM cisplatin: 24 hr cisplatin then compound + cisplatin
[7] = then compound alone 72 hr, read-out: Cell viability IC50 in A427 cells with 2.5 μM cisplatin: 24 hr cisplatin then compound

Structure (SMILES)	IC50 (WEE1 kinase enzyme)	IC50 (A427 cells [1])	IC50 (A549 cells)	IC50 (A427 cells [2]; A-427, 72 h, A427, 72 hr)	IC50 (As-Pc-1 cells)	IC50 (A172 cells)	IC50 (Panc 10.05 cells [4])	further results
C=CCn1c(=O)c2cnc(Nc3ccc4c(c3)CNCC4)nc2n1-c1cccc(C(C)(C)O)n1 [Example 1.1]	2.4 nM	64 nM	460 nM	–	–	–	–	IC50 (NCI-H460 cells): > 10000 nM; IC50 (LoVo cells): 258 nM; IC50 (A427 cells [2]; A-427, A427, 72 hr): 95 nM; IC50 (HCT-116 cells): 1040 nM
C=CCn1c(=O)c2cnc(Nc3ccc4c(c3)CN(C(=O)C(C)(C)O)CC4(C)C)nc2n1-c1cccc(C(C)(C)O)n1 [Example 1.3]	< 2 nM	483 nM	1220 nM	620 nM	–	–	–	–
C=CCn1c(=O)c2cnc(Nc3ccc4c(c3)CN(C(=O)CO)CC4)nc2n1-c1cccc(C(C)(C)O)n1 [Example 1.2]	4 nM	269 nM	842 nM	330 nM	–	–	–	–
C=CCn1c(=O)c2cnc(Nc3ccc4c(c3)CN(C(=O)CO)CC4(C)C)nc2n1-c1cccc(C(C)(C)O)n1 [Example 1.6]	3.1 nM	277 nM	972 nM	355 nM	–	–	–	–
CCn1c(=O)c2cnc(Nc3ccc4c(c3)CNCC4)nc2n1-c1cccc(C(C)(C)O)n1 [Example 1.7]	3 nM	–	660 nM	800 nM	–	–	–	IC50 (A2780 cells): 1100 nM

Continued, in another order:

IC50 (WEE1 kinase enzyme)	Structure (SMILES)	IC50 (A427 cells [1])	IC50 (A549 cells)	IC50 (A427 cells [2]; A-427, 72 h, A427, 72 hr)	IC50 (As-Pc-1 cells)	IC50 (A172 cells)	IC50 (Panc 10.05 cells [4])	further results
4.5 nM	CCn1c(=O)c2cnc(Nc3ccc4c(c3)CN(C)CC4(C)C)nc2n1-c1cccc(C(C)(C)O)n1 [Example 1.16]	–	1550 nM	1420 nM	–	–	–	IC50 (A427 cells [3]; [6]): < 14 nM; IC50 (A427 cells [3]; [7]): 100 nM
3 nM	CC(C)(C)c1cccc(-n2c3nc(Nc4ccc5c(c4)CCNC5)ncc3c(=O)n2C2CC2)n1 [Example 1.143]	–	2850 nM	470 nM	270 nM	3620 nM	1850 nM	–
4 nM	CCn1c(=O)c2cnc(Nc3ccc4c(c3)CCNC4)nc2n1-c1cccc(C(C)(C)O)n1 [Example 1.12]	–	1060 nM	1720 nM	–	–	–	IC50 (A427 cells [3]; [6]): 70 nM; IC50 (A427 cells [3]; [7]): 120 nM
62 nM	CC(C)(C)c1cc(-n2c3nc(Nc4ccc5c(c4)CCNC5(C)C)ncc3c(=O)n2C2CC2)ccn1 [Example 2.182]	–	7750 nM	720 nM	1740 nM	10600 nM	8600 nM	–
53 nM	CC(C)n1c(=O)c2cnc(Nc3ccc4c(c3)CCNC4)nc2n1-c1ccn(C2CC2)n1 [Example 2.188]	–	910 nM	815 nM	965 nM	1520 nM	3100 nM	–
6 nM	CC(C)n1c(=O)c2cnc(Nc3ccc4c(c3)CCNC4)nc2n1-c1ccnc(C(C)(C)C)c1 [Example 1.138]	–	2420 nM	993 nM	200 nM	4090 nM	2820 nM	combination index with gemcitabine (AsPC-1 cells): less than 1; combination index with gemcitabine (Panc 10.05 cells [5]): less than 1
9 nM	CC(C)(F)c1cccc(-n2c3nc(Nc4ccc5c(c4)CCNC5)ncc3c(=O)n2C2CC2)n1 [Example 1.146]	–	6680 nM	965 nM	920 nM	6820 nM	5700 nM	–
